A short description of data set [1]: Cytotoxicity against African green monkey Vero cells. The format is cell-based. The following applies: chlorocebus sabaeus.
For the next data set, the system named is dengue virus type 2. Put plainly: Antiviral activity against DENV2 infected in African green monkey Vero cells. Format: functional, organism-based.
A short description of data set [2]: Cytotoxicity against human HuH7 cells. Format: cell-based, Huh-7.
A further data set concerns Hepatitis C virus. Put plainly: Antiviral activity against Hepatitis C virus subtype 1b replicon infected in human HuH7 cells. The format is functional, cell-based, Hepacivirus hominis. The following applies: genotype 1b, Huh-7. For orientation: A replicon is a self-replicating genome or part of one, used to study replication in cells.
Data set [3] in a line: Cytotoxicity against human CEM/DNR cells after 3 days by MTT assay. The format is functional, cell-based. The following applies: 72 h. On the technique in general: Formazan colour is commonly taken as a measure of viable cells.
The nature of data set [4]: Cytotoxicity against human K562-TAX cells after 3 days by MTT assay. The format is functional, cell-based. The conditions noted are these: 72 h.
The test system of the next data set is K562. As to the kind of experiment: Cytotoxicity against human K562 cells after 3 days by MTT assay. The format is functional, cell-based. The conditions noted are these: K562, 72 h.
Data set [5] concerns HCT-116. Put plainly: Cytotoxicity against human HCT116 cells after 3 days by MTT assay. The format is functional, cell-based. The conditions noted are these: HCT-116, 72 h.
A short description of data set [6]: Cytotoxicity against human BJ cells after 3 days by MTT assay. Format: cell-based.
In data set [7] the test system is HCT-116. As to the kind of experiment: Cytotoxicity against p53 deficient human HCT116 cells after 3 days by MTT assay. The format is functional, cell-based. The following applies: HCT-116, 72 h.
A short description of data set [8]: Cytotoxicity against human MRC5 cells after 3 days by MTT assay. The format is cell-based.
For another data set, the system named is CCRF-CEM. Put plainly: Cytotoxicity against human CCRF-CEM cells after 3 days by MTT assay. The conditions noted are these: 72 h. The format is functional, cell-based.
The subject of a further data set is A549. Put plainly: Cytotoxicity against human A549 cells after 3 days by MTT assay. Format: functional, cell-based. The following applies: A549, 72 h.
Data set [9] is described as follows: Selectivity index, ratio of CC50 for human HuH7 cells to EC50 for Hepatitis C virus subtype 1b replicon infected in human HuH7 cells. Format: toxicity, cell-based, Huh-7. The conditions noted are these: read-out: Ratio CC50/EC50.

For orientation: CC50 means the concentration that lowers cell viability or growth by half. The term EC50 denotes the concentration at which the effect is half-maximal. By IC50 is commonly meant the concentration that gives 50% inhibition.

With `C[C@]1(CO)O[C@@H](n2cc(-c3ccsc3)c3c(N)ncnc32)[C@H](O)[C@@H]1O`, the CC50 in data set [1] is over 50 µM; in data set [2] it was over 44 µM. The EC50 in the data set on dengue virus type 2 is over 50 µM; in the data set on Hepatitis C virus it was 40.6 µM.
With `CCOC(=O)[C@H](C)NP(=O)(OC[C@@]1(C)O[C@@H](n2cc(-c3ccccc3)c3c(N)ncnc32)[C@H](O)[C@@H]1O)Oc1ccccc1` (stereo not given in full), the CC50 in [2] was found to be 9.1 µM. The same compound showed an EC50 in the data set with Hepatitis C virus of 18 µM.
For `CCOC(=O)[C@H](C)NP(=O)(OC[C@@]1(C)O[C@@H](n2ccc3c(-c4ccccc4)ncnc32)[C@H](O)[C@@H]1O)Oc1ccccc1` (stereo not given in full), the IC50 was 43.6 µM in data set [3]; 35.4 µM in [4]; 29.9 µM with K562; 22.2 µM in the data set on HCT-116 [5]; 22.8 µM in the data set with HCT-116 [7]; 17.4 µM in the data set with CCRF-CEM. In addition, the IC50 in the data set with A549 was 25.9 µM. In addition, the CC50 in [1] was over 50 µM; in [2], over 44 µM. Besides, the EC50 was over 50 µM with dengue virus type 2 and 16.5 µM in the data set on Hepatitis C virus. Further, the CC50 at 72 h in data set [6] worked out at 75.3 µM; in data set [8], 108 µM.
In the case of `C[C@]1(CO)O[C@@H](n2cc(-c3cc4ccccc4o3)c3c(N)ncnc32)[C@H](O)[C@@H]1O`, the IC50 in data set [3] stood at 8.94 µM; in [4], 8.82 µM; in the data set on K562, 9.64 µM; with HCT-116 [5], 9.75 µM; in the data set with HCT-116 [7] it was 10.7 µM; in the data set on CCRF-CEM, 16.6 µM. The IC50 in the data set on A549 is 7.13 µM. In addition, the CC50 in data set [1] was 27 µM; in data set [2] it was 31.1 µM. The values for the EC50 in the data set with dengue virus type 2 and in the data set with Hepatitis C virus were 10.1 µM and 4.48 µM, respectively. Besides, the CC50 at 72 h in data set [6] is 104 µM; in data set [8], 83.7 µM.
On to `CCOC(=O)[C@H](C)NP(=O)(OC[C@@]1(C)O[C@@H](n2ccc3c(-c4cccs4)ncnc32)[C@H](O)[C@@H]1O)Oc1ccccc1` (stereo not given in full), for which the half-maximal inhibitory concentration (IC50) came out at 43.1 µM in [3]; 33.6 µM in [4]; 22.9 µM in the data set on K562; 19.4 µM in the data set on HCT-116 [5]; 22 µM in the data set with HCT-116 [7]; 12.3 µM with CCRF-CEM. Besides, half-maximal inhibition in the data set with A549 (IC50) required 22.2 µM. The same compound showed a CC50 in data set [2] of 3.64 µM. The results for the CC50 at 72 h in [6] and in [8] were 83.1 µM and 106 µM, respectively. In the data set on Hepatitis C virus, this compound yielded an EC50 of 3.32 µM.
For `C[C@]1(CO)O[C@@H](n2cc(-c3ccco3)c3c(N)ncnc32)[C@H](O)[C@@H]1O`, the CC50 was over 50 µM in data set [1] and over 44 µM in data set [2]. Besides, the EC50 in the data set on dengue virus type 2 is over 50 µM; in the data set on Hepatitis C virus, 20 µM.
Regarding `C[C@]1(CO)O[C@@H](n2cc(I)c3c(N)ncnc32)[C@H](O)[C@@H]1O`, the IC50 was found to be 27.9 µM in data set [3]; 9.46 µM in [4]; 20.4 µM with K562; 5.25 µM in the data set on HCT-116 [5]; 5.87 µM with HCT-116 [7]; 10.2 µM in the data set on CCRF-CEM. This compound also displayed an IC50 in the data set with A549 of 5.92 µM. Besides, the values for the CC50 in [1] and in [2] were 8.08 µM and 27.1 µM, respectively. Also, the EC50 in the data set on dengue virus type 2 was 5.55 µM; in the data set with Hepatitis C virus, 3.75 µM. The results for the CC50 at 72 h in data set [6] and in data set [8] were 42.4 µM and 40.8 µM, respectively. The selectivity ratio in data set [9] came to 7.2.
For the compound `CCOC(=O)[C@H](C)NP(=O)(OC[C@@]1(C)O[C@@H](n2cc(-c3cccs3)c3c(N)ncnc32)[C@H](O)[C@@H]1O)Oc1ccccc1` (stereo not given in full), half-maximal cytotoxicity in data set [2] (CC50) was put at 13 µM. For the same compound, it took 23.2 µM to reach a half-maximal effect with Hepatitis C virus (EC50).
Consider `CCOC(=O)[C@H](C)NP(=O)(OC[C@@]1(C)O[C@@H](n2cc(-c3ccco3)c3c(N)ncnc32)[C@H](O)[C@@H]1O)Oc1ccccc1` (stereo not given in full), for which the CC50 in data set [2] stood at 20.8 µM. This compound registered an EC50 in the data set on Hepatitis C virus of over 44 µM.
For the compound `C#Cc1cn([C@@H]2O[C@](C)(CO)[C@@H](O)[C@H]2O)c2ncnc(N)c12`, the IC50 came out at 38.4 µM in data set [3]; 27.4 µM in [4]; 31.1 µM in the data set on K562; 8.79 µM in the data set on HCT-116 [5]; 10.2 µM in the data set on HCT-116 [7]; 30.3 µM in the data set on CCRF-CEM. In the data set with A549, this compound gave an IC50 of 9.55 µM. Moreover, the CC50 worked out at 13.4 µM in data set [1] and 32.2 µM in [2]. Moreover, the EC50 is 4.59 µM in the data set on dengue virus type 2 and 6.27 µM in the data set with Hepatitis C virus. In addition, the CC50 at 72 h in [6] was 126 µM; in [8], 125 µM.
For the compound `C[C@]1(CO)O[C@@H](n2ccc3c(-c4cc5ccccc5o4)ncnc32)[C@H](O)[C@@H]1O`, the figures for the CC50 in data set [1] and in [2] were over 50 µM and over 44 µM, respectively. Also, the results for the EC50 in the data set with dengue virus type 2 and with Hepatitis C virus were over 50 µM and 7.62 µM, respectively.
As for `CCOC(=O)[C@H](C)NP(=O)(OC[C@@]1(C)O[C@@H](n2ccc3c(-c4ccco4)ncnc32)[C@H](O)[C@@H]1O)Oc1ccccc1` (stereo not given in full), the results for the CC50 in data set [1] and in data set [2] were over 50 µM and 27.9 µM, respectively. In addition, the concentration giving a half-maximal response (EC50) in the data set with dengue virus type 2 was over 50 µM; with Hepatitis C virus, 17.6 µM.
Regarding `C[C@]1(CO)O[C@@H](n2cc(-c3cccs3)c3c(N)ncnc32)[C@H](O)[C@@H]1O`, the CC50 in data set [1] was over 50 µM; in [2], over 44 µM. For the same compound, the EC50 was over 50 µM in the data set with dengue virus type 2 and 17.9 µM in the data set on Hepatitis C virus.

Source of the values: ChEMBL document CHEMBL3627619, “Synthesis and biological profiling of 6- or 7-(het)aryl-7-deazapurine 4'-C-methylribonucleosides” (Bioorg Med Chem, 2015).
